Measured values as given in PMC7904806, “A phase I dose-finding, pharmacokinetics and genotyping study of olaparib and lurbinectedin in patients with advanced solid tumors” (Scientific Reports, 2021).
Where “and” joins values, the source holds several entries; their conditions need not be identical. Equal values may be shown once. Entries after “also recorded” stand apart in the source; their conditions may differ. Read-outs that look alike come from different tables or passages of the source. Blank lines part the entries; values can stand above or below the compound they belong to.

Legend:
[1] = cited from earlier work
[2] = single-agent, cited from earlier work
A2780 = assay: MTT cytotoxicity assay, A2780; type: cell-based; conditions: A2780, lowest IC50 of the panel
Procedure: (§1) The following Ovarian Cancer Cell lines were analyzed: TOV112, SKOV-3, OVCAR-3, PEO1, PEO6, PEO4, A2780 and A2780-Cis (an A2780 variant made resistant to platinum), representing the main different molecular subtypes of ovarian cancer (Supplementary Table 6). These cell lines were maintained at 37 °C in 5% CO2 in RPMI‐1640 medium (Sigma‐Aldrich Co.) and DMEM medium (Sigma‐Aldrich Co.), all supplemented with 10% heat‐inactivated FBS (Sigma‐Aldrich Co.). To verify the genetic profile of the cell lines, a characterization of microsatellite markers was carried out (AmpFlSTR Identifiler PCR Amplification Kit, AppliedBiosystem).
(§2) For the pharmacological characterization of the different cell lines, dose–response curves were obtained for lurbinectedin (range between 25 and 0.0343 μM and 100–1.5625 μM dilution factor 3 and 2, respectively) and olaparib (range between […]). […] Cytotoxicity assay was assessed performing six technical replicates and three biological replicates per each curve point.
(§3) For MTT assay, cells were plated and after 24 h of incubation, treated with the drug (lurbinectedin/olaparib) either as a single agent or with both agents simultaneously. […] Finally, the absorbance was measured at 570 nm.

[3] = system: ovarian cancer cell lines; assay: MTT cytotoxicity assay, panel of ovarian cancer cell lines; type: cell-based
Procedure: as §1, §2
Before starting cytotoxicity assays to characterize the chemosensitivity of cell lines to study drugs, different time of exposures and doses were tested in order to establish the most suitable working conditions. […] Regarding olaparib, exposure times were established at 72, 96 and 120 h, measuring absorbance directly after treatment exposure (Supplementary Fig. 10). […]

[4] = Pharmacokinetics in patients, cycle 1 (noncompartmental analysis); type: in vivo, human; conditions: for Drug–drug interactions (DDI): combination of lurbinectedin and olaparib
From the text: Blood samples for pharmacokinetic (PK) analyses were collected during cycle 1, with a schedule of ten samples (Supplementary Table 5).
Safety and efficacy population comprised all patients who received at least one dose of the study treatment. Continuous variables were presented with summary statistics and qualitative variables with the absolute and relative frequencies. In those cases where it was necessary to ensure the normality of the continuous parameters, log transformation (or other suitable transformation) was performed. Analysis of Variance (ANOVA) was used for exploratory group comparisons. If Gaussian distribution assumptions (Shapiro–Wilks test) were not met, equivalent nonparametric methods as the Kruskal–Wallis, were performed. Chi-squared or Fisher exact test were used for qualitative parameters. To explore the change in value of a variable, between baseline and week 12 or any other time point, a t-test for paired data or the Wilcoxon signed-rank test was performed, based on the distribution followed by the corresponding variable. All statistical analyses were performed using IBM SPSS Statistics 22 and R v.3.4.3. PK analysis was performed according to the NCA. […] The dose-exposure relationships for Cmax and AUC for lurbinectedin and AUC 0–6 for olaparib will be evaluated and any potential PK interaction between olaparib and lurbinectedin were also explored. The population pharmacokinetics (PopPK) models for each drug was used to detect potential drug–drug interactions based on single agent PopPK models. The potential influence on selected PK parameters of selected demographic and clinical dichotomous variables (gender, laboratory test results above/below selected cutoff values, etc.) was evaluated by Student’s test Mann–Whitney’s U test as appropriate. For multinomial variables, analysis of variance was used. For selected continuous demographic and clinical variables, relationships with selected PK parameters were graphically explored and assessed using correlation and regression methods.
Supplementary Table 5. Sampling schedule for the determination of lurbinectedin and
Sample Time relative to the Sampling times Sampling times PK
number lurbinectedin for lurbinectedin for olaparib window
#1 1 0 min Pre-infusion Pre-dose -10 min to SOI
#2 1 0.5 h 30 min before EOI 30 min after 1st administration ±2 min
#3 1 0.92 h 5 min before EOI 55 min after 1st administration ±2 min
#4 1 1.5 h 30 min after EOI 1.5 h after 1st administration ±5 min
#5 1 3 h 2 h after EOI 3 h after 1st administration ±10 min
#6 1 4.5 h 3.5 h after EOI 4.5 h after 1st administration ±10 min
#7 1 6 h 5 h after EOI 6 h after 1st administration ±10 min
2 24 h after 1st administration
#8 24 h 23 h after EOI (immediately before 3rd olaparib administration) ±2 h
4 72 h after 1st administration
#9 † 72 h 71 h after EOI (immediately before 7th olaparib administration) +24 / -2 h […]

A2780 CIS = assay: MTT cytotoxicity assay, A2780 CIS; type: cell-based; conditions: A2780cis, lowest IC50 of the panel
Procedure: as §1, §2, §3

SMILES: COc1ccc2[nH]c3c(c2c1)CCN[C@]31CS[C@@H]2c3c(OC(C)=O)c(C)c4c(c3[C@H](COC1=O)N1[C@@H]2[C@H]2c3c(cc(C)c(OC)c3O)C[C@@H]([C@@H]1O)N2C)OCO4 [lurbinectedin]
Mean lurbinectedin CL as single-agent ([1]; single-agent ref 25): 12 L/h | Grade 3–4 neutropenia ([2]; dose adjusted to body surface area ref 23): 57% | Grade 3–4 neutropenia ([2]; flat dose ref 21): up to 85% | IC50 (A2780): 0.46 nM | IC50 reached after 1 h exposure ([3]; 1 h exposure, viability at 72 h): not enough to reach the IC50 value | IC50 ([3]; all cell lines except OVCAR3, 72 h exposure): < 1 nM | Drug–drug interactions (DDI) [4]: did not observe any potential drug–drug interactions; also recorded: no drug interactions | Mean lurbinectedin CL ([4]; highest olaparib DL (250 mg BID)): 12 L/h | Lurbinectedin CL variability ([4]; lurbinectedin 1 mg/m^2): 92% | Lurbinectedin CL, one patient with high CL ([4]; lurbinectedin 1 mg/m^2): 37 L/h | Lurbinectedin CL variability ([4]; lurbinectedin 1.5 mg/m^2): 36% | Lurbinectedin CL variability ([4]; lurbinectedin 2 mg/m^2): 52% | Lurbinectedin CL variabilities ([4]; olaparib 200 and 250 mg BID, lurbinectedin 1.5 and 2 mg/m^2): ~36% | Mean lurbinectedin clearance (CL) ([4]; three lurbinectedin DLs, with olaparib): ~12 L/h

Olaparib PK parameters by lurbinectedin DL ([4]; NCA): did not show differences | Drug–drug interactions (DDI) [4]: no drug interactions | clearance ([4]; human, blood, oral, olaparib 100 mg, read-out: Olaparib CL (converted)): 50 mL/min | clearance ([4]; human, blood, oral, olaparib DLs above 100 mg, read-out: Olaparib CL (converted)): 100 to 167 mL/min | half-life ([4]; human, in vivo, oral, this trial, NCA samples until 6 h, read-out: Olaparib terminal half-life (converted)): 3 h | clearance ([4]; human, in vivo, oral, this trial, read-out: Mean olaparib total body clearance (converted)): 117 mL/min
SMILES: O=C(c1cc(Cc2n[nH]c(=O)c3ccccc23)ccc1F)N1CCN(C(=O)C2CC2)CC1 [olaparib]
Olaparib total body clearance ([1]; literature ref 31): 5.1 L/h and 8.6 L/h | IC50 (A2780 CIS): 2900 nM
